Data as given in publication PMC5951806, “Rapid labelling and covalent inhibition of intracellular native proteins using ligand-directed N-acyl-N-alkyl sulfonamide” (Nature Communications, 2018).

Assays:
Experiment in all cases: TMT LC-MSMS of 11-labelled proteins
Format in all cases: cell-based
[1] = molecular target: T1, dehydrogenase/reductase SDR family member 2, mitochondrial (DHRS2) (Homo sapiens, UniProt Q13268)
T1 sequence (Q13268 24-280): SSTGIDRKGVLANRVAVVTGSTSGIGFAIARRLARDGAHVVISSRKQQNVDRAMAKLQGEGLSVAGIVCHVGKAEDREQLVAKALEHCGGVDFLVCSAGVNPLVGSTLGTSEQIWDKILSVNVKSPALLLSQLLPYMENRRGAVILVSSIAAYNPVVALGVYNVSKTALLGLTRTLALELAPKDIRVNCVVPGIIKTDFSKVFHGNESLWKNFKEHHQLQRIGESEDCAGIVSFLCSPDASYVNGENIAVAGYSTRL

[2] = molecular target: 2,4-dienoyl-CoA reductase, mitochondrial (DECR1) (Homo sapiens, UniProt Q16698)
Sequence of 2,4-dienoyl-CoA reductase, mitochondrial (DECR1) (Q16698 35-335): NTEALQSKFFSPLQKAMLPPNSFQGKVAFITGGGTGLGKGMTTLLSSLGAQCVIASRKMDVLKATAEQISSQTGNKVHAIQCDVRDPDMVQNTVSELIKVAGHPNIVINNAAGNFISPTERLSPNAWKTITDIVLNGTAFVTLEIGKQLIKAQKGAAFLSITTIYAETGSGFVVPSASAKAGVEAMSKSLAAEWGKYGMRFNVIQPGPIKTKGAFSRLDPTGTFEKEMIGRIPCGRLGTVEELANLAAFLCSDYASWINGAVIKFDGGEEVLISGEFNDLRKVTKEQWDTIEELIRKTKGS

[3] = molecular target: Endoplasmin (HSP90B1) (Homo sapiens, UniProt P14625)
Sequence of Endoplasmin (HSP90B1) (P14625 22-803): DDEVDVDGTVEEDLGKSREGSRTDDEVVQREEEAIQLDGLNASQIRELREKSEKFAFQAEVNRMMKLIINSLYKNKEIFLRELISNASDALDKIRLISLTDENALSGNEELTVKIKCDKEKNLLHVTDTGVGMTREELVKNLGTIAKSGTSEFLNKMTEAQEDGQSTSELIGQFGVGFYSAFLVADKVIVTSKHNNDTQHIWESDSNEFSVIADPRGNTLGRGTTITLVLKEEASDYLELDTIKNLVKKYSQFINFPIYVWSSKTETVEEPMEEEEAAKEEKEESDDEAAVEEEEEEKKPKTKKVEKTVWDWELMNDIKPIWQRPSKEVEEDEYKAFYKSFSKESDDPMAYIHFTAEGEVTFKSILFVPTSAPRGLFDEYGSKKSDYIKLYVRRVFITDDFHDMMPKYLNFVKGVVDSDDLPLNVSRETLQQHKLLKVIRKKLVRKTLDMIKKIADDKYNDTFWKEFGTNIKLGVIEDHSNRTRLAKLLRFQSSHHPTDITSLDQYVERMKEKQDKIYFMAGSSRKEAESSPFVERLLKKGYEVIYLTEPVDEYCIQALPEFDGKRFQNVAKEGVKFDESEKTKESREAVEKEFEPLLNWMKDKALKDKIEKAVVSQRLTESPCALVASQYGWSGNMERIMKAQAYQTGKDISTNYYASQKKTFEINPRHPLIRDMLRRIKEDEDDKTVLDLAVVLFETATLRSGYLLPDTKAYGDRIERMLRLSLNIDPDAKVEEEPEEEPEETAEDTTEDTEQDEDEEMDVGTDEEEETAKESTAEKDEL

[4] = molecular target: T2, peroxiredoxin-1 (PRDX1) (Homo sapiens, UniProt Q06830)
T2 sequence (Q06830 1-199): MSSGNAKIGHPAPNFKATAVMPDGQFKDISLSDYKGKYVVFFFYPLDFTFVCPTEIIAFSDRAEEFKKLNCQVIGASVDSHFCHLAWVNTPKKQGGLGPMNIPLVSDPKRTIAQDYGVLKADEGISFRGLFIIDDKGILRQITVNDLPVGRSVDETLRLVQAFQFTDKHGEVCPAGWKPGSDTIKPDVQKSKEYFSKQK

[5] = sheet Exp1, SKBR3 cells, 11 0.5 µM 3 h vs DMSO
[6] = sheet Exp1, SKBR3 cells, 11 0.5 µM 3 h vs with PU-H71 10 µM
[7] = sheet Merged, SKBR3 cells, 11 0.5 µM 3 h vs DMSO
[8] = sheet Merged, SKBR3 cells, 11 0.5 µM 3 h vs with PU-H71 10 µM

- Abundance Ratio: (11) / (11 with PU-H71) ([1]; Exp3, DHRS2): 0.644
- Abundance Ratio: (11) / (DMSO) ([1]; Exp3, DHRS2): 2.859
- Abundances (Grouped): 11 ([1]; Exp3, DHRS2): 223.6
- Abundances (Grouped): 11 with PU-H71 ([1]; Exp3, DHRS2): 347.1
- Abundance Ratio: (11) / (DMSO) [1, 5]: 3.162
- Abundance Ratio: (11) / (11 with PU-H71) [1, 6]: 0.783
- Abundance Ratio: (11) / (11 with PU-H71) ([1]; sheet Exp2, DHRS2): 0.6
- Abundance Ratio: (11) / (DMSO) ([1]; sheet Exp2, DHRS2): 3.132
- Abundances (Grouped): 11 ([1]; sheet Exp2, DHRS2): 156.3
- Abundances (Grouped): 11 with PU-H71 ([1]; sheet Exp2, DHRS2): 260.6
- Abundance Ratio: (11) / (DMSO) [1, 7]: 2.859
- Abundance Ratio: (11) / (11 with PU-H71) [1, 8]: 0.644
- Abundance Ratio: (11) / (DMSO) [2, 5]: 2.538
- Abundance Ratio: (11) / (11 with PU-H71) [2, 6]: 0.793
- Abundance Ratio: (11) / (11 with PU-H71) ([2]; sheet Exp2, DECR1): 0.758
- Abundance Ratio: (11) / (DMSO) ([2]; sheet Exp2, DECR1): 1.823
- Abundances (Grouped): 11 ([2]; sheet Exp2, DECR1): 59.8
- Abundances (Grouped): 11 with PU-H71 ([2]; sheet Exp2, DECR1, with PU-H71): 78.9
- Abundance Ratio: (11) / (DMSO) [2, 7]: 2.151
- Abundance Ratio: (11) / (11 with PU-H71) [2, 8]: 0.775
- Abundance Ratio: (11) / (11 with PU-H71) ([3]; Exp3, HSP90B1): 1.101
- Abundance Ratio: (11) / (DMSO) ([3]; Exp3, HSP90B1): 2.844
- Abundances (Grouped): 11 ([3]; Exp3, HSP90B1): 158.7
- Abundances (Grouped): 11 with PU-H71 ([3]; Exp3, HSP90B1): 144.1
- Abundance Ratio: (11) / (DMSO) [3, 5]: 6.226
- Abundance Ratio: (11) / (11 with PU-H71) [3, 6]: 1.266
- Abundance Ratio: (11) / (11 with PU-H71) ([3]; sheet Exp2, HSP90B1): 0.932
- Abundance Ratio: (11) / (DMSO) ([3]; sheet Exp2, HSP90B1): 2.232
- Abundances (Grouped): 11 ([3]; sheet Exp2, HSP90B1): 31.7
- Abundances (Grouped): 11 with PU-H71 ([3]; sheet Exp2, HSP90B1): 34
- Abundance Ratio: (11) / (DMSO) [3, 7]: 6.226
- Abundance Ratio: (11) / (11 with PU-H71) [3, 8]: 1.266
- Abundance Ratio: (11) / (11 with PU-H71) ([4]; Exp3, PRDX1): 0.822
- Abundance Ratio: (11) / (DMSO) ([4]; Exp3, PRDX1): 2.683
- Abundances (Grouped): 11 ([4]; Exp3, PRDX1): 295.4
- Abundances (Grouped): 11 with PU-H71 ([4]; Exp3, PRDX1): 359.3
- Abundance Ratio: (11) / (DMSO) [4, 5]: 2.358
- Abundance Ratio: (11) / (11 with PU-H71) [4, 6]: 0.804
- Abundance Ratio: (11) / (11 with PU-H71) ([4]; sheet Exp2, PRDX1): 0.861
- Abundance Ratio: (11) / (DMSO) ([4]; sheet Exp2, PRDX1): 2.62
- Abundances (Grouped): 11 ([4]; sheet Exp2, PRDX1): 93.8
- Abundances (Grouped): 11 with PU-H71 ([4]; sheet Exp2, PRDX1): 109
- Abundance Ratio: (11) / (DMSO) [4, 7]: 2.219
- Abundance Ratio: (11) / (11 with PU-H71) [4, 8]: 0.847
Structure (SMILES): CC(=O)Oc1ccc2c(c1)Oc1cc(OC(C)=O)ccc1C21OC(=O)c2cc(C(=O)NCCOCCOCCNC(=O)CCCC(=O)N(CC#N)S(=O)(=O)c3ccc(C(=O)NCCCn4c(Sc5cc6c(cc5I)OCO6)nc5c(N)ncnc54)cc3)ccc21 [compound 11]
